The values that follow come from ChEMBL document CHEMBL4732062, “Protease activated receptor 4 (PAR4) antagonists: Research progress on small molecules in the field of antiplatelet agents” (Eur J Med Chem, 2021).

Each structure is given as a SMILES string.

Test [1] is described as follows: Inhibition of thrombin-induced platelet aggregation in human platelet-rich plasma incubated for 1 min followed by thrombin addition. The test is classed as functional.
Test [2] is described as follows: Inhibition of PAF-induced platelet aggregation in human platelet-rich plasma incubated for 1 min followed by PAF addition. The test is classed as functional.
The nature of test [3]: Inhibition of collagen-induced platelet aggregation in human platelet-rich plasma incubated for 1 min followed by collagen addition. It is filed as functional.
The nature of test [4]: Inhibition of arachidonic acid-induced platelet aggregation in human platelet-rich plasma incubated for 1 min followed by arachidonic acid addition. The test is classed as functional, cell-based.
Test [5] has as its target T1, Proteinase-activated receptor 4 (Homo sapiens, UniProt Q96RI0).
T1 sequence (Q96RI0 whole entry): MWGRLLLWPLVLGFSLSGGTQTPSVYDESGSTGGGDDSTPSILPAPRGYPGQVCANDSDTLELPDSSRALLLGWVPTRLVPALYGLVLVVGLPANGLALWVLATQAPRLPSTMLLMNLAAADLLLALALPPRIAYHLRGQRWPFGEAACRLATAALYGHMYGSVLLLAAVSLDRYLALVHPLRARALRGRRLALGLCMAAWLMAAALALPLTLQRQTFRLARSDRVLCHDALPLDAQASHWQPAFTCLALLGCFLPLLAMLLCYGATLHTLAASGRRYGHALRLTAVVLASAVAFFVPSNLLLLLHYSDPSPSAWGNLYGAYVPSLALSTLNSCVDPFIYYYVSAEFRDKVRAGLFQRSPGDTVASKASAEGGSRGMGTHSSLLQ
In words: Inhibition of human PAR4 expressed in HEK293 cells assessed as Ala-(L-4-F-Phe)-Pro-Gly-Trp-Leu-Val-Lys-Asn-Gly-induced inhibition of calcium mobilization preincubated for 30 mins followed by Ala-(L-4-F-Phe)-Pro-Gly-Trp-Leu-Val-Lys-Asn-Gly stimulation by FLIPR method. The test is classed as functional, cell-based.

The test system of test [6] is Cynomolgus monkey. Description: Antithrombotic activity in cynomolgus monkey model of electrolytic carotid artery thrombosis assessed as increase in mesenteric bleeding time at 1 mg/kg, PO administered once daily for 3 days measured at 2 hrs post last dose. The test is classed as functional, Macaca fascicularis. As to conditions: time 3 day.
For test [7], the system named is Cynomolgus monkey. Description: Antithrombotic activity in cynomolgus monkey model of electrolytic carotid artery thrombosis assessed as increase in provoked kidney bleeding time at 1 mg/kg, PO administered once daily for 3 days measured at 2 hrs post last dose. The test is classed as functional, Macaca fascicularis. As to conditions: time 3 day.
For test [8], the system named is Rhesus monkey. Description: Antithrombotic activity in monkey model of electrolytic carotid artery thrombosis assessed as reduction in thrombus weight at 0.05 mg/kg administered as single dose measured at 2 hrs post dose. It is filed as functional, Macaca mulatta. Further details: scale not given: the % may be the effect or the level left.
In test [9] the test system is Rhesus monkey. Description: Antithrombotic activity in monkey model of electrolytic carotid artery thrombosis assessed as reduction in thrombus weight at 0.5 mg/kg administered as single dose measured at 2 hrs post dose relative to control. The test is classed as functional, Macaca mulatta. Also noted: scale not given: the % may be the effect or the level left.
In test [10] the test system is Rhesus monkey. In words: Antithrombotic activity in monkey model of electrolytic carotid artery thrombosis assessed as reduction in thrombus weight at 0.1 mg/kg administered as single dose measured at 2 hrs post dose. It is filed as functional, Macaca mulatta. Further details: scale not given: the % may be the effect or the level left.
For test [11], the system named is Rhesus monkey. In words: Antithrombotic activity in monkey assessed as increase in mesenteric artery bleeding time at 0.5 mg/kg administered as single dose cotreated with aspirin measured at 2 hrs post dose relative to control. The test is classed as functional, Macaca mulatta.
In test [12] the test system is Rhesus monkey. Description: Antithrombotic activity in monkey assessed as increase in mesenteric artery bleeding time at 0.05 to 0.5 mg/kg administered as single dose measured at 2 hrs post dose relative to control. It is filed as functional, Macaca mulatta. As to conditions: dose 0.05-0.5 mg/kg.
The subject of test [13] is Rhesus monkey. In words: Antithrombotic activity in monkey assessed as increase in mesenteric artery bleeding time at 0.1 mg/kg administered as single dose cotreated with aspirin measured at 2 hrs post dose relative to control. It is filed as functional, Macaca mulatta.
In test [14] the test system is Rhesus monkey. Description: Antithrombotic activity in monkey model of electrolytic carotid artery thrombosis assessed as reduction in thrombus weight at 0.5 mg/kg administered as single dose cotreated with aspirin measured at 2 hrs post dose relative to control. It is filed as functional, Macaca mulatta. Further details: scale not given: the % may be the effect or the level left.

In test [15] the test system is Cynomolgus monkey. In words: Antithrombotic activity in cynomolgus monkey model of electrolytic carotid artery thrombosis assessed as reduction in thrombus weight at 4 mg/kg/hr, iv administered as single dose measured at 2 hrs post dose relative to control. The test is classed as functional, Macaca fascicularis. Also noted: scale not given: the % may be the effect or the level left.

For test [16], the system named is Rhesus monkey. In words: Antithrombotic activity in monkey assessed as increase in mesenteric artery bleeding time at 4 mg/kg/hr, iv administered as single dose measured at 2 hrs post dose relative to control. The test is classed as functional, Macaca mulatta.
The test system of test [17] is Rhesus monkey. Description: Antithrombotic activity in monkey model of electrolytic carotid artery thrombosis assessed as reduction in thrombus weight at 0.1 mg/kg administered as single dose cotreated with aspirin measured at 2 hrs post dose relative to control. It is filed as functional, Macaca mulatta. Also noted: scale not given: the % may be the effect or the level left.

Test [18] can be described thus: Antagonist activity at PAR4 in cynomolgus monkey whole blood assessed as inhibition of Ala-(L-4-F-Phe)-Pro-Gly-Trp-Leu-Val-Lys-Asn-Gly-induced platelet aggregation preincubated for 10 mins followed by Ala-(L-4-F-Phe)-Pro-Gly-Trp-Leu-Val-Lys-Asn-Gly stimulation. The test is classed as tissue-based. As to conditions: Macaca fascicularis.
In test [19] the test system is Cynomolgus monkey. Description: Antithrombotic activity in cynomolgus monkey model of electrolytic carotid artery thrombosis assessed as reduction in thrombus weight at 0.5 mg/kg, PO administered once daily for 3 days measured at 2 hrs post last dose relative to control. The test is classed as functional, Macaca fascicularis. Further details: scale not given: the % may be the effect or the level left. As to conditions: time 3 day.

For the molecule `CCOC(=O)c1cccc(-c2nn(Cc3ccccc3)c3ccccc23)c1`, the IC50 in [1] and in test [2] was more than 270 µM throughout.
On to `COC(=O)c1ccc(-c2nn(Cc3ccccc3)c3cc4c(cc23)OCO4)o1`, for which the IC50 (in general, the concentration that gives 50% inhibition) in test [1] is more than 270 µM; in test [2] it was more than 270 µM; in [3], 157 µM; in [4], 92.3 µM.
Regarding `CCOC(=O)c1ccc(-c2nn(Cc3ccccc3)c3ccccc23)cc1`, in test [4], the IC50 turned out to be 185 µM.
Consider `COc1cnc2c(-c3nc4cc(F)c(O[C@@H]5CCC(C)(C)[C@@H]5OC(=O)Nc5ccnc(C)n5)cc4s3)cc(C)cc2n1`, for which the IC50 in test [5] was 0.0024 µM.
Regarding `COC(=O)c1ccc(-c2nn(-c3ccccc3)c3ccccc23)o1`, the IC50 in test [1] and in test [2] was more than 270 µM in each case.
`O=C(O)c1ccc(-c2nn(Cc3ccccc3)c3ccccc23)cc1`: the IC50 in test [1] is more than 270 µM; in test [2], 235 µM; in test [3], 148 µM; in [4], 156 µM.
`COC(=O)[C@H](c1ccccc1Cl)N1CCc2sccc2C1` [CLOPIDOGREL]: the “fold change (FC)” value in the test on Cynomolgus monkey [6] and with Cynomolgus monkey [7] was more than 10 in each case.
For `COC(=O)c1ccc(-c2nn(Cc3ccccc3)c3cc(C)ccc23)o1`, the IC50 in test [1] stood at 126 µM; in test [2] it was 76.3 µM; in [3], 59.3 µM; in test [4], 32.4 µM.
For the molecule `COc1cc(OCc2nc(-c3ccc(C(=O)N(C)C)cc3)sc2C)c2cc(-c3cn4nc(OC)sc4n3)oc2c1`, the Activity in the test on Rhesus monkey [8] is listed as 36%; in the test on Rhesus monkey [9] it was 88%; with Rhesus monkey [10], 63%. Moreover, the “fold change (FC)” value in the test on Rhesus monkey [11] was 3; in the test on Rhesus monkey [12], “<=1.2”; in the test on Rhesus monkey [13], 2.6. Moreover, the IC50 in test [5] was determined as 0.00045 µM.
`CC(=O)Oc1ccccc1C(=O)O` [ASPIRIN]: the Activity in the test with Rhesus monkey [14] is 89%; in the test with Cynomolgus monkey [15], 12%; in the test on Rhesus monkey [17], 50%. The “fold change (FC)” value in the test with Rhesus monkey [16] is listed as 2.2.
Take `COc1cc(OCc2nc(N3CCOCC3)sc2C)c2cc(-c3cn4nc(OC)sc4n3)oc2c1`: in [18], the IC50 was 0.0021 µM. Further, the Activity with Cynomolgus monkey [19] is listed as 50%.
